Experimental data reported in paper PMC4189421, “Induction of Oligodendrocyte Differentiation and In Vitro Myelination by Inhibition of Rho-Associated Kinase” (ASN NEURO, 2014).
Read-outs that look alike come from different tables or passages of the source.

Assays:
rat mixed glial OPCs = test: Myelin protein expression in rat mixed glia-derived OPCs (qPCR, MBP ELISA); assay type: cell-based
Method: Rat postnatal OPCs were obtained as described elsewhere according to the original procedure of [McCarthy and […] (1980)]. In brief, postnatal Day 1 rat pups were sacrificed, and cerebral cortices dissected and mechanically dissociated in medium composed of DMEM, 10% heat inactivated fetal bovine serum, and 5 μg/ml penicillin/streptomycin. Dissociated cells were plated and maintained in 75-cm^2 culture flasks for 10 days, replenishing with fresh media at Days 3 and 7. At Day 10, the flasks were shaken on a heated (37°C) shaker for 1 hr at 110 rpm to separate loosely attached microglial cells. The medium was replenished, and the cells incubated for the remainder of the day. To dislodge OPCs from the astrocyte monolayer, flasks were shaken overnight (210 rpm, 37°C). […] Cells were then plated on PDL-coated tissue culture plastic and treated with test compounds. […] The results are presented as specific mRNA expression relative to either β-actin or β-tubulin, used as internal controls as indicated. OPCs isolated from rat mixed glial cultures are known to mature readily in the absence of mitogens achieving a premyelinating OL stage as determined by the expression of the cell surface sulfatide O4, and the myelin proteins MBP and PLP among others ([Armstrong, 1998]; [Barbarese & Pfeiffer, 1981]; [[…], 1999]; [Jung-[…], Schumacher, Robel, & Baulieu, 1996]; [Konola, Tyler, Yamamura, & Lees, 1991]). They also display marked morphological changes, progressing from bipolar to multibranched cells generating membranous structures, and probably represent a later developmental stage than Nph-OPC. In rat mixed glial OPCs, we measured myelin protein expression at the RNA level by qPCR and MBP production by ELISA (MBL International, Woburn, MA).

mouse-derived OPCs = test: Myelin protein mRNA expression in mouse-derived OPCs (qPCR); assay type: cell-based; conditions: mouse-derived OPCs exposed for 4 days
Method: Neurospheres (Nph) were prepared from embryos at 14.5 days of gestation obtained from timed pregnant females of C57/Bl6 mice, as previously described ([Kornblum, Yanni, Easterday, & Seroogy, 2000]; [Pedraza, Monk, Lei, Hao, & Macklin, 2008]). In brief, after separation of meninges and cerebellum, cerebrum tissue was mechanically triturated with a 1-ml micropipette until total tissue dissociation was achieved, filtered through a 70 -µm cell strainer (Fisher Scientific, Pittsburgh, PA), and plated in 25-cm^2 plastic culture flasks (2 brains/flask). Nph proliferation media (NPM) consisted of Dulbecco’s Modified Eagle Medium (DMEM)/F12, B27 neuronal supplement (Gibco, Baltimore, MD) and 10 ng/ml […] (EGF; Sigma, St. Louis, MO). After 48 to 72 hr, floating Nphs were passaged at a 1 : 1 ratio into 75-cm^2 culture flasks. After a further 48 to 72 hr, they were passaged into 150-cm^2 flasks. […]
Total RNA was isolated from single-cell cultures or tissue explants using Tri-Zol reagent (Gibco). cDNA was generated from 1 to 3 µg of total RNA by Retrotranscriptase II (Gibco) reaction, and the selected transcripts were detected and amplified by quantitative RT-PCR in an Applied Biosystems (Grand Island, NY) 7500 fast qPCR machine, following the manufacturer’s instructions. […]

[1] = test system: MYPT1 phosphorylation in mNph-OPC; test: MYPT1 phosphorylation (sandwich ELISA, western blot) as ROCK target engagement; conditions: for Decrease of MYPT1 phosphorylation (ELISA): 4-hr mNph-OPC treatment
Method: Tris-glycine acrylamide-bysacrylamide gradient gel electrophoresis was performed as follows: After washing the cells with ice-cold PBS, protein lysates were made by adding 50 µl of PhosphoSafe extraction reagent (EMD Millipore) supplemented with antiprotease cocktail (cOmplete; Roche, Branford, CT) onto each 100-mm^2 cell culture plate. After detaching the cells with the help of a cell scraper and disrupting cell membranes by sonication, the protein extracts were centrifuged (10,000 g, 10 min, 4℃) and the supernatants separated. Protein content was measured by the BCA protein determination method (Biorad, Hercules, CA), and 30 µg of total protein was mixed with SDS sample buffer (Laemmli) supplemented with 1% β-mercaptoethanol. After heating the samples to 70℃ for 10 min, they were loaded onto 4% to 20% acryl-bysacrylamide gradient gels, and electrophoresis was carried out at 120 volts with constant amperage.
Resolved proteins were then transferred onto nitrocellulose membranes using the iBlot methodology and device (Life technologies). […] Secondary detection was performed using Li-Cor IRDye secondary anti-mouse and anti-rabbit antibodies, and near-infrared signal was detected by Li-Cor’s Odyssey imaging system.
We assessed MYPT1 phosphorylation in Nph-OPCs treated for 4 hr with ROCK inhibitors in a dose-response experiment and using a sandwich ELISA as a measuring method (MBL International).

[2] = test system: human pluripotent stem cell-derived OPCs (hSC-OPCs); test: Human stem cell-derived OPC differentiation assay (O4 staining, ArrayScan); assay type: cell-based; conditions: for EC50: Homo sapiens
Method: Human oligodendrocytes were generated by a proprietary methodology of […] (Weizmann Science Park, Nes-Ziona, Israel; […].com). In brief, 5,000 human embryonic stem cell-derived OPCs (hES-OPCs) were seeded in each well of Matrigel and PDL-coated 96-well black μClear plates (Greiner, Frickenhausen, Germany). […] Twenty-four hours after seeding, medium was removed, and 200 μl of DIF fresh medium containing the compound of interest at a specific dilution (in 0.1% DMSO) was supplemented to the cells (first feeding). Total volume for each well was 200 μl. Four replicates were used for each dose of compound under study. After 48 hr, the media were replenished by removing 100 μl of media, and the same amount of fresh DIF media was added to the wells. Only at the first feeding, DIF media with 0.1% DMSO were used as control of the compound in medium containing 0.1% DMSO. Two experimental sets were conducted for the differentiation assay. On Day 21, live staining of oligodendrocytes was done by incubating the cells with O4 antibody (R&D Systems, Minneapolis, MN) for 20 min followed by detection with goat anti-mouse IgM-FITC (Chemicon) for additional 20 min. Cells were washed twice using DIF media. Immediately after, cells were fixed using 4% paraformaldehyde, and then washed with 1 × PBS, and 4',6-diamidino-2-phenylindole (DAPI; Sigma) was used for nuclear staining. […] Cellomics Neural profiling bioapplication was used for processing and analyzing the images. The 4-parameter Hill-Slope curve fittings were generated by GraphPad Prism software using the least squares fitting method, and EC50 values were calculated for the three major parameters of oligodendrocyte differentiation: number of differentiated oligodendrocytes, number of oligodendrocyte processes, and oligodendrocytes processes length (μm). The negative control groups of each experimental set were used for data normalization. We additionally studied the effect of ROCK inhibition in cultures of OPCs of human origin. […]

Compound: C[C@@H](N)[C@H]1CC[C@H](C(=O)Nc2ccncc2)CC1.Cl.Cl [Y0503, trans-4-[(1 R)-1-aminoethyl]-N-4-pyridinylcyclohexanecarboxamide dihydrochloride]
- Expression of MBP, PLP, and MOG mRNAs (qPCR) (rat mixed glial OPCs; 3 days maturation +4 days treatment, concentrations as low as 0.1 µM): significant increase
- MBP at the protein level (ELISA) (rat mixed glial OPCs; treatments at 24 hr and 72 hr after plating): increased expression
- MBP and PLP mRNA (mouse-derived OPCs): increased significantly
- Decrease of MYPT1 phosphorylation (ELISA) ([1]; 30 µM): ~80%
- Decrease of MYPT1 phosphorylation (ELISA) ([1]; 100 µM): more than 80%
- Duration of downregulation of MYPT1 phosphorylation (western blot) ([1]; control levels again after 24 hr of treatment): over 12 hr
- EC50 ([2]; read-out: OLs processes count / well EC50): 88.5 nM
- EC50 ([2]; read-out: OLs processes total length / well EC50): 138 nM
- Differentiation into O4-positive premyelinating stage ([2]; hSC-OPCs treated 48 hr, 21 days culture): dose-response differentiation effect
